The source of these data is US12629406B2, “Alterations in endothelin receptors following hemorrhage and resuscitation by centhaquin” (MIDWESTERN UNIVERSITY, priority 2018, dated 2026).

The conditions of series [1]: in vivo; cited from earlier work.
A short description of series [2]: Renal blood flow of hemorrhaged rats subjected to 20 minutes of renal artery occlusion. Type of series: in vivo, rat. The method, then:
Effect of centhaquin on renal blood perfusion of hemorrhaged rats. Hemorrhaged rats were resuscitated with vehicle (saline) or centhaquin low dose (0.01 mg/kg) or high dose (0.1 mg/kg). The effect of centhaquin on renal blood perfusion was measured before the induction of shock, 30 minutes after shock (hemorrhage) and 10, 30, 60, 90 and 120 minutes after resuscitation. […] This improved renal medullary blood perfusion is indicative of a use of centhaquin to prevent or treat injury to the kidneys (FIG. 5). […] A low dose of 0.02 mg/kg of centhaquin was also found to be effective in increasing the renal blood flow of hemorrhaged rats subjected to 20 minutes of renal artery occlusion.

The conditions of series [3]: 24 human subjects; cited from earlier work.

Molecules are shown by their SMILES.

In the case of `Cc1cccc(N2CCN(CCc3ccc4ccccc4n3)CC2)c1` [centhaquin, 2-[2-(4-(3-methyphenyl)-1-piperazinyl)]ethyl-quinoline], in series [1], the half-life result is “about one” and the volume of distribution result is recorded as “high”. The “increasing the renal blood flow” value in series [2] (high dose 0.2 mg/kg, versus 0.02 mg/kg) was “did not have the same efficacy”. Moreover, the “increasing the renal blood flow” value in series [2] (low dose 0.02 mg/kg) is “effective”. Further, the safety and tolerability result in series [3] is “safe and was well tolerated”.
